Data taken from patent US20240116985A1, “STAPLED PEPTIDES AND METHODS THEREOF” (priority 2020, published 2024).

Tests used:
[1] = biological target: T1, full-length B-Catenin (Uniprot ID P35222) (Homo sapiens, UniProt P35222); test: Alphascreen binding assay (beta-catenin / biotin-TCF4 10-53)
T1 construct: 65 nM full-length B-Catenin (Uniprot ID P35222)
T1 sequence (P35222 1-781): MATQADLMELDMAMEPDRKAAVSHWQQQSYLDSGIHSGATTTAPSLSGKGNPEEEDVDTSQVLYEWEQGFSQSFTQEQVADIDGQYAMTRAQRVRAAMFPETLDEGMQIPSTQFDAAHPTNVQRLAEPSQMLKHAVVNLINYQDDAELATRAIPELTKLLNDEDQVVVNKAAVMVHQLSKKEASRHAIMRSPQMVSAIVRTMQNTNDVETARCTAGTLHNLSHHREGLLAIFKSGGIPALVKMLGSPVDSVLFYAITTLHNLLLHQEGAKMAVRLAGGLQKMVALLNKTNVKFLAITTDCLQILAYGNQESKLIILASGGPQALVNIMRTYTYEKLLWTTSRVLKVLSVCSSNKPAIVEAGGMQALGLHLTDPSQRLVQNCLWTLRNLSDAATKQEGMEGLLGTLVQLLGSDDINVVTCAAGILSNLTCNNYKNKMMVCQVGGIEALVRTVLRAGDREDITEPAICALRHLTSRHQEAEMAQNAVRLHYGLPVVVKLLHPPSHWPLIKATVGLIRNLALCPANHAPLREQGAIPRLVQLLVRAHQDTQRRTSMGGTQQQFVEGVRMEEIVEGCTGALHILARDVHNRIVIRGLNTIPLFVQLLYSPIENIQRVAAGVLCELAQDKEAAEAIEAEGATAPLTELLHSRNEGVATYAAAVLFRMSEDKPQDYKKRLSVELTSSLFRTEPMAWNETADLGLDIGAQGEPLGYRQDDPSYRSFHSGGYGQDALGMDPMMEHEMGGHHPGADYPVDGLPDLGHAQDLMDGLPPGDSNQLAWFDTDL
Protocol: In some embodiments, an assay is an Alphascreen binding assay. A useful protocol is described below as an example.
Alphascreen binding assay: Using the AlphaScreen Histidine (Nickel Chelate) Detection Kit (PerkinElmer), peptide solutions were prepared in buffer (50 mM Tris pH 8.0, 250 mM NaCl, 2% glycerol, 0.03% Tween-20, 0.01% TritonX-100, 0.1% BSA w/v) using a 3-fold serial dilution from 10 uM to 5 nM. Probe solution (65 nM full-length B-Catenin (Uniprot ID P35222), mixed with 10 nM biotin labeled TCF4 residues 10-53 (Uniprot ID Q9NQB0) peptide in buffer) was prepared and 4 uL per well was plated in a white polystyrene 384-well plate (Corning). Equal volume of the titrated peptide was added to the plate and incubated for 15 minutes at 20° C. Then 4 uL of donor and 4 uL acceptor beads at 10 ug/mL were added to the plate, for a 16 uL reaction pool and protected from light for 60 minutes at 20° C. prior to read. Reads were performed on a CLARIOstar plate reader (BMG Labtech) in duplicate, and data were fitted to a 1:1 binding model with hill slope using an in-house script. All provided concentrations are final concentrations.

[2] = CHI Log D procedure; format: physicochemical; settings: for CHI Log D: pH 7.4

| SMILES | EC50 [1] [µM] | CHI Log D [2] | chromatographic logD ([2]; pH 7.4, CHI Log D) |
| --- | --- | --- | --- |
| CC(=O)N1CCC[C@]12CC=CCCCC1(CCCC=CCCCCCC[C@@](C)(C(=O)N[C@@H](Cc3ccccc3)C(=O)N[C@@H](Cc3c[nH]c4ccccc34)C(=O)N[C@@H](CCC(N)=O)C(N)=O)NC(=O)[C@H](C(C)C)NC(=O)[C@H](Cc3ccc(C(F)(F)F)cc3)NC(=O)[C@H](C)NC(=O)[C@H](C)NC(=O)[C@H](CC(=O)O)NC(=O)[C@H](CC(=O)O)NC1=O)NC(=O)[C@H](C)NC(=O)[C@H](CC(=O)O)NC2=O (stereo partly drawn) [I-242, Ac-PL3-Asp-Ala-B5-Asp-Asp-Ala-Ala-4F3MeF-Val-S8-Phe-Trp-Gln-NH2] | 4.91 | 2.098 |  |
| CC(=O)N1CCC[C@]12CC=CCCCC1(CCCC=CCCCCCC[C@@](C)(C(=O)N[C@@H](Cc3ccccc3)C(=O)N[C@@H](Cc3c[nH]c4ccccc34)C(=O)N[C@@H](CCC(N)=O)C(N)=O)NC(=O)[C@H](C(C)C)NC(=O)[C@H](Cc3ccccc3)NC(=O)[C@H](C)NC(=O)[C@H](C)NC(=O)[C@H](CCC(=O)O)NC(=O)[C@H](CC(=O)O)NC1=O)NC(=O)[C@H](C)NC(=O)[C@H](CC(N)=O)NC2=O (stereo partly drawn) [I-199, Ac-PL3-Asn-Ala-B5-Asp-Glu-Ala-Ala-Phe-Val-S8-Phe-Trp-Gln-NH2] | 0.796 | 2.262 |  |
| CC(=O)N[C@@H](Cc1ccccc1)C(=O)N[C@@H](CC(=O)O)C(=O)N[C@@H](C)C(=O)N[C@]1(C)CCCCCCC=CCOC(=O)N2CC[C@@](C(=O)N[C@@H](Cc3ccccc3)C(=O)N[C@@H](Cc3c[nH]c4ccccc34)C(=O)N[C@@H](CCC(N)=O)C(N)=O)(C2)NC(=O)[C@H](C(C)C)NC(=O)[C@H](Cc2ccc(F)c(F)c2)NC(=O)[C@H](C)NC(=O)[C@H](C)NC(=O)[C@H](CC(=O)O)NC(=O)[C@H](CC(=O)O)NC1=O [I-79, Ac-Phe-Asp-Ala-R8-Asp-Asp-Ala-Ala-34FF-Val-PyrS-Phe-Trp-Gln-NH2] | 3.97 |  | 1.27 |
| CC(=O)N1CCC[C@]12CC=CCCCC1(CCCC=CCCCCCC[C@@](C)(C(=O)N[C@@H](Cc3ccccc3)C(=O)N[C@@H](Cc3c[nH]c4ccccc34)C(=O)N[C@@H](CCC(N)=O)C(N)=O)NC(=O)[C@H](C(C)C)NC(=O)[C@H](Cc3ccc(N)cc3)NC(=O)[C@H](C)NC(=O)[C@H](C)NC(=O)[C@H](CC(=O)O)NC(=O)[C@H](CC(=O)O)NC1=O)NC(=O)[C@H](C)NC(=O)[C@H](CC(=O)O)NC2=O (stereo partly drawn) [I-322, Ac-PL3-Asp-Ala-B5-Asp-Asp-Ala-Ala-4AmPhe-Val-S8-Phe-Trp-Gln-NH2] | 0.355 | 1.933 |  |
| CC(=O)N[C@@H](Cc1ccccc1)C(=O)N[C@@H](CC(=O)O)C(=O)N[C@@H](C)C(=O)N[C@]1(C)CCCCCCC=CCOC(=O)N2CC[C@@](C(=O)N[C@@H](Cc3ccccc3)C(=O)N[C@@H](Cc3c[nH]c4ccccc34)C(=O)N[C@@H](CCC(N)=O)C(N)=O)(C2)NC(=O)[C@H](C(C)C)NC(=O)[C@H](Cc2ccccc2)NC(=O)[C@H](C)NC(=O)[C@H](C)NC(=O)[C@H](CCc2ccccc2)NC(=O)[C@H](CC(=O)O)NC1=O [I-97, Ac-Phe-Asp-Ala-R8-Asp-hPhe-Ala-Ala-Phe-Val-PyrS-Phe-Trp-Gln-NH2] | 7.01 | 2.062 |  |
| CC(=O)N[C@@H](Cc1ccccc1)C(=O)N[C@@H](CC(=O)O)C(=O)N[C@@H](C)C(=O)N[C@]1(C)CCCCCC=CCOC(=O)N2CC[C@@](C(=O)N[C@@H](Cc3ccccc3)C(=O)N[C@@H](Cc3c[nH]c4ccccc34)C(=O)N[C@@H](CCC(N)=O)C(N)=O)(C2)NC(=O)[C@H](C(C)C)NC(=O)[C@H](Cc2ccccc2)NC(=O)[C@H](C)NC(=O)[C@H](C)NC(=O)[C@H](CC(=O)O)NC(=O)[C@H](CC(=O)O)NC1=O [I-31, Ac-Phe-Asp-Ala-R7-Asp-Asp-Ala-Ala-Phe-Val-PyrS-Phe-Trp-Gln-NH2] | 7.22 | 1.245 |  |
| CC(=O)N1CCC[C@]12CC=CCCCC1(CCCC=CCCCCCC[C@@](C)(C(=O)N[C@@H](Cc3cccc(Cl)c3)C(=O)N[C@@H](Cc3c[nH]c4ccccc34)C(=O)N[C@@H](CCC(N)=O)C(N)=O)NC(=O)[C@H](C(C)C)NC(=O)[C@H](Cc3ccccc3)NC(=O)[C@H](C)NC(=O)[C@H](C)NC(=O)[C@H](CC(=O)O)NC(=O)[C@H](CC(=O)O)NC1=O)NC(=O)[C@H](C)NC(=O)[C@H](CC(=O)O)NC2=O (stereo partly drawn) [I-311, Ac-PL3-Asp-Ala-B5-Asp-Asp-Ala-Ala-Phe-Val-S8-3C1F-Trp-Gln-NH2] | 1.24 | 2.226 |  |
| CC(=O)N1CCC[C@]12CC=CCCCC1(CCCC=CCCCCCC[C@@](C)(C(=O)N[C@@H](Cc3ccccc3)C(=O)N[C@@H](Cc3c[nH]c4ccccc34)C(=O)N[C@@H](CCC(N)=O)C(N)=O)NC(=O)[C@H](C(C)C)NC(=O)[C@H](Cc3c[nH]cn3)NC(=O)[C@H](C)NC(=O)[C@H](C)NC(=O)[C@H](CC(=O)O)NC(=O)[C@H](CC(=O)O)NC1=O)NC(=O)[C@H](C)NC(=O)[C@H](CC(=O)O)NC2=O (stereo partly drawn) [I-321, Ac-PL3-Asp-Ala-B5-Asp-Asp-Ala-Ala-His-Val-S8-Phe-Trp-Gln-NH2] | 2.24 | 2.073 |  |
| CC(=O)N[C@@H](Cc1ccccc1)C(=O)N[C@@H](CC(=O)O)C(=O)N[C@@H](C)C(=O)N[C@]1(C)CCCCCCC=CCOC(=O)N2CC[C@@](C(=O)N[C@@H](Cc3ccccc3)C(=O)N[C@@H](Cc3c[nH]c4ccccc34)C(=O)N[C@@H](CCC(N)=O)C(N)=O)(C2)NC(=O)[C@H](C(C)C)NC(=O)[C@H](Cc2cccc(C(N)=O)c2)NC(=O)[C@H](C)NC(=O)[C@H](C)NC(=O)[C@H](CC(=O)O)NC(=O)[C@H](CC(=O)O)NC1=O [I-109, Ac-Phe-Asp-Ala-R8-Asp-Asp-Ala-Ala-3CBMF-Val-PyrS-Phe-Trp-Gln-NH2] | 8.82 | 1.223 |  |
| CC(=O)N1CCC[C@]12CC=CCCCC1(CCCC=CCCCCCC[C@@](C)(C(=O)N[C@@H](Cc3ccccc3)C(=O)N[C@@H](Cc3c[nH]c4ccccc34)C(=O)N[C@@H](CCC(N)=O)C(N)=O)NC(=O)[C@H](C(C)C)NC(=O)[C@H](Cc3ccc(C(F)(F)F)cc3)NC(=O)[C@H](C)NC(=O)[C@H](C)NC(=O)[C@H](CC(=O)O)NC(=O)[C@H](CC(=O)O)NC1=O)NC(=O)[C@H](C)NC(=O)[C@H](CC(=O)O)NC2=O (stereo partly drawn) [I-240, Ac-PL3-Asp-Ala-B5-Asp-Asp-Ala-Ala-4F3MeF-Val-S8-Phe-Trp-Gln-NH2] | 3.47 | 2.074 |  |
| CC(=O)N[C@@H](Cc1ccccc1)C(=O)N[C@@H](CC(=O)O)C(=O)N[C@@H](C)C(=O)N[C@]1(C)CCCCCCC=CCOC(=O)N2CC[C@@](C(=O)N[C@@H](CC3CCCC3)C(=O)N[C@@H](Cc3c[nH]c4ccccc34)C(=O)N[C@@H](CCC(N)=O)C(N)=O)(C2)NC(=O)[C@H](C(C)C)NC(=O)[C@H](Cc2ccccc2)NC(=O)[C@H](C)NC(=O)[C@H](C)NC(=O)[C@H](CC(=O)O)NC(=O)[C@H](CC(=O)O)NC1=O (single isomer, unassigned) [I-94, Ac-Phe-Asp-Ala-R8-Asp-Asp-Ala-Ala-Phe-Val-PyrS-CypA-Trp-Gln-NH2] | 7.01 | 1.409 |  |
| CC(=O)N1CCC[C@]12CC=CCCCC1(CCCC=CCCCCCC[C@@](C)(C(=O)N[C@@H](Cc3ccccc3)C(=O)N[C@@H](Cc3c[nH]c4ccc(C5CC5)cc34)C(=O)N[C@@H](CCC(N)=O)C(N)=O)NC(=O)[C@H](C(C)C)NC(=O)[C@H](Cc3ccccc3)NC(=O)[C@H](C)NC(=O)[C@H](C)NC(=O)[C@H](CCC(=O)O)NC(=O)[C@H](CC(=O)O)NC1=O)NC(=O)[C@H](C)NC(=O)[C@H](CC(=O)O)NC2=O (stereo partly drawn) [I-171, Ac-PL3-Asp-Ala-B5-Asp-Glu-Ala-Ala-Phe-Val-S8-Phe-5CpW-Gln-NH2] | 2.07 | 2.204 |  |
| CC(=O)N1CCC[C@]12CC=CCCCC1(CCCC=CCCCCCC[C@@](C)(C(=O)N[C@@H](Cc3ccccc3)C(=O)N[C@@H](Cc3c[nH]c4ccccc34)C(=O)N[C@@H](CCC(N)=O)C(N)=O)NC(=O)[C@H](C(C)C)NC(=O)[C@H](Cc3cc(F)c(F)c(F)c3)NC(=O)[C@H](C)NC(=O)[C@H](C)NC(=O)[C@H](CCC(=O)O)NC(=O)[C@H](CC(=O)O)NC1=O)NC(=O)[C@H](C)NC(=O)[C@H](CC(=O)O)NC2=O (stereo partly drawn) [I-209, Ac-PL3-Asp-Ala-B5-Asp-Glu-Ala-Ala-345FF-Val-S8-Phe-Trp-Gln-NH2] | 1.4 | 2.088 |  |
